Test results: patent US20090270350A1, “Pyridinone Pyrazole Urea and Pyrimidinone Pyrazole Urea Derivatives” (PFIZER INC., priority 2006, published 2009)
Read-outs that look alike come from different tables or passages of the source.

Biological target: p38α (Homo sapiens, UniProt Q16539)
Assay: p38α/MK2 cascade assay
Type: biochemical
Conditions: read-out: p38a/MK2 Cascade 40 min Pre-Incuabtion (% Inhibition): IC50
Description: The ability of compounds to inhibit activated p38α was determined in a p38α/MK-2 cascade assay format. The kinase activity of p38α is determined by its ability to phosphorylate/activate nonactive MK2 (54-400). Activation of MK-2 by p38α is measured by following the phosphorylation of a MK-2 specific peptide, Hsp27 peptide (FITC-KKKALSRQLSVAA). The phosphorylation of the Hsp27 peptide was quantified using the Caliper LabChip 3000. The kinase reactions were carried out in 20 mM HEPES pH 7.5, 10 mM MgCl2, 0.0005% Tween-20, 0.01% BSA, 1 mM DTT, and 2% DMSO. The inhibitors were varied between 1000-0.05 nM, while the Hsp27 peptide substrate, MgATP, and nonactive MK-2 (54-400) were held constant at 0.5 µM, 5 µM, and 1 nM, respectively. Inhibitors were preincubated with p38α for 40 minutes prior to initiating the reaction with peptide, MgATP, and MK-2. The kinase reactions were quenched after 60 minutes by the addition of stop buffer (180 mM HEPES, 30 mM EDTA, and 0.2% Coating Reagent-3).
The above protocol assay was used to determine the IC50 values for some of the compounds in the above Examples.
IC50 values were determined for the compounds listed in Table 2, using the same p38α/MK2 cascade assay used to determine the IC50 values for the compounds in Table 1. The compounds of Table 2 were prepared using methods similar to those listed in the Examples for compounds of Table 1.

[1] = Table 1, inhibitors preincubated with p38α for 40 minutes, phosphorylation of Hsp27 peptide by MK-2, Caliper LabChip 3000
[2] = Table 2, same p38α/MK2 cascade assay, 40 minutes preincubation

Sequence of p38α (Q16539 whole entry): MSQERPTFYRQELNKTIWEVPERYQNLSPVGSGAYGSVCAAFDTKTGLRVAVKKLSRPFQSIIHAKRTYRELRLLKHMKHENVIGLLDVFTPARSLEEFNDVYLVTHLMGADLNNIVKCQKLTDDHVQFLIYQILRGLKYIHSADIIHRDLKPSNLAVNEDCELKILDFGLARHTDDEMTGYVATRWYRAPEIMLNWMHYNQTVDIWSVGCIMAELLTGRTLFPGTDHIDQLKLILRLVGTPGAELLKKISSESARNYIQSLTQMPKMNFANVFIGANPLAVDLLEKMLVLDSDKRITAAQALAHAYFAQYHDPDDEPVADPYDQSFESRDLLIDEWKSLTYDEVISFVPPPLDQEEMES

IC50 [1] [nM] | IC50 [2] [nM] | SMILES
25.8 | – | CCc1c(OCc2ccccc2CNC(=O)Nc2cc(C(C)(C)C)nn2-c2cccc(OC)c2)ncn(Cc2ccc(OC)cc2)c1=O [Example 115, 1-[3-tert-butyl-1-(3-methoxyphenyl)-1H-pyrazol-5-yl]-3-[2-({[5-ethyl-1-(4-methoxybenzyl)-6-oxo-1,6-dihydropyrimidin-4-yl]oxy}methyl)benzyl]urea]
– | 1.8 | Cc1ccc(C(=O)NCC(O)CO)cc1-n1c(C)cc(OCc2ccccc2CNC(=O)Nc2cc(C(C)(C)C)nn2-c2cccc(OCCO)c2)c(Cl)c1=O (centres unmarked) [Example 212, 3-[4-{[2-({[({3-tert-butyl-1-[3-(2-hydroxyethoxy)phenyl]-1H-pyrazol-5-yl}amino)carbonyl]amino}methyl)benzyl]oxy}-3-chloro-6-methyl-2-oxopyridin-1(2H)-yl]-N-(2,3-dihydroxypropyl)-4-methylbenzamide]
2.37 | – | Cc1ccc(-n2nc(C(C)(C)C)cc2NC(=O)NCc2cc(F)ccc2COc2cc(C)n(-c3cc(C(=O)NCCO)ccc3C)c(=O)c2Cl)cc1 [Example 190, 3-{4-[(2-{[({[3-tert-butyl-1-(4-methylphenyl)-1H-pyrazol-5-yl]amino}carbonyl)amino]methyl}-4-fluorobenzyl)oxy]-3-chloro-6-methyl-2-oxopyridin-1(2H)-yl}-N-(2-hydroxyethyl)-4-methylbenzamide]
– | 13.6 | CSc1ccccc1Cn1c(C)cc(OCc2ccccc2CNC(=O)Nc2cc(C(C)(C)C)nn2-c2ccc(O)cc2)c(C)c1=O [Example 241, 1-[3-tert-butyl-1-(4-hydroxyphenyl)-1H-pyrazol-5-yl]-3-{2-[({3,6-dimethyl-1-[2-(methylthio)benzyl]-2-oxo-1,2-dihydro-pyridin-4-yl}oxy)methyl]benzyl}urea]
– | 4.5 | COc1cccc(Cn2c(C)cc(OCc3ccc(F)cc3CNC(=O)Nc3cc(C(C)(C)C)nn3-c3cccc(OC)c3)c(Cl)c2=O)c1 [Example 201, 1-[3-tert-butyl-1-(3-methoxyphenyl)-1H-pyrazol-5-yl]-3-[2-({[3-chloro-1-(3-methoxybenzyl)-6-methyl-2-oxo-1,2-dihydropyridin-4-yl]oxy}methyl)-5-fluoro-benzyl]urea]
2.55 | – | COc1cccc(-n2nc(C(C)(C)C)cc2NC(=O)NCc2cc(F)ccc2COc2cc(C)n(-c3cc(C(=O)O)ccc3C)c(=O)c2Cl)c1 [Example 189, 3-{4-[(2-{[({[3-tert-butyl-1-(3-methoxyphenyl)-1H-pyrazol-5-yl]amino}carbonyl)amino]methyl}-4-fluorobenzyl)oxy]-3-chloro-6-methyl-2-oxopyridin-1(2H)-yl}-4-methylbenzoic acid]
– | 3.6 | CNC(=O)c1ccc(C)c(-n2c(C)cc(OCc3ccccc3CNC(=O)Nc3cc(C(C)(C)C)nn3-c3ccc(Cl)c(O)c3)c(Cl)c2=O)c1 [Example 226, 3-{4-[(2-{[({[3-tert-butyl-1-(4-chloro-3-hydroxyphenyl)-1H-pyrazol-5-yl]amino}carbonyl)amino]methyl}benzyl)oxy]-3-chloro-6-methyl-2-oxopyridin-1(2H)-yl}-N,4-dimethylbenzamide]
10.1 | – | CCc1c(OCc2ccccc2CNC(=O)Nc2cc(C(C)(C)C)nn2-c2cccc(F)c2)ncn(Cc2ccc(OC)cc2)c1=O [Example 116, 1-[3-tert-butyl-1-(3-fluorophenyl)-1H-pyrazol-5-yl]-3-[2-({[5-ethyl-1-(4-methoxybenzyl)-6-oxo-1,6-dihydropyrimidin-4-yl]oxy}methyl)benzyl]urea]
– | 84.3 | COc1ccccc1Cn1c(C)cc(OCc2ccccc2CNC(=O)Nc2cc(C(C)(C)C)nn2-c2ccc(Cl)c(O)c2)c(Cl)c1=O [Example 262, 1-[3-tert-butyl-1-(4-chloro-3-hydroxyphenyl)-1H-pyrazol-5-yl]-3-[2-({[3-chloro-1-(2-methoxybenzyl)-6-methyl-2-oxo-1,2-dihydro-pyridin-4-yl]oxy}methyl)benzyl]urea]
– | 2.5 | COC(=O)c1ccc(C)c(-n2c(C)cc(OCc3ccccc3CNC(=O)Nc3cc(C(C)(C)C)nn3-c3ccc(C)cc3)c(Cl)c2=O)c1 [Example 205, methyl 3-{4-[(2-{[({[3-tert-butyl-1-(4-methylphenyl)-1H-pyrazol-5-yl]amino}carbonyl)-amino]methyl}benzyl)oxy]-3-chloro-6-methyl-2-oxopyridin-1(2H)-yl}-4-methylbenzoate]
11.9 | – | COc1cccc(-n2nc(C(C)(C)C)cc2NC(=O)NCc2ccccc2COc2cc(C)n(Cc3ccc(OC)cc3OC)c(=O)c2Br)c1 [Example 119, 1-[2-({[3-bromo-1-(2,4-dimethoxybenzyl)-6-methyl-2-oxo-1,2-dihydropyridin-4-yl]oxy}methyl)benzyl]-3-[3-tert-butyl-1-(3-methoxyphenyl)-1H-pyrazol-5-yl]urea]
39.2 | – | COc1ccc(Cn2c(C)cc(OCc3ccccc3CNC(=O)Nc3cc(C(C)(C)C)nn3-c3ccc(O)c(Cl)c3)cc2=O)cc1 [Example 56, 1-[3-tert-butyl-1-(3-chloro-4-hydroxyphenyl)-1H-pyrazol-5-yl]-3-[2-({[1-(4-methoxybenzyl)-6-methyl-2-oxo-1,2-dihydropyridin-4-yl]oxy}methyl)benzyl]urea]
– | 19.9 | COc1cc(Cn2c(C)cc(OCc3ccccc3CNC(=O)Nc3cc(C(C)(C)C)nn3-c3ccc(Cl)c(O)c3)c(Cl)c2=O)ccc1Cl [Example 256, 1-[3-tert-butyl-1-(4-chloro-3-hydroxyphenyl)-1H-pyrazol-5-yl]-3-[2-({[3-chloro-1-(4-chloro-3-methoxybenzyl)-6-methyl-2-oxo-1,2-dihydropyridin-4-yl]oxy}methyl)benzyl]urea]
3.49 | – | COc1ccc(Cn2c(C)cc(OCc3ccccc3CNC(=O)Nc3cc(C(C)(C)C)nn3-c3cccc(OC)c3)c(Br)c2=O)cc1 [Example 99, 1-[2-({[3-bromo-1-(4-methoxybenzyl)-6-methyl-2-oxo-1,2-dihydropyridin-4-yl]oxy}methyl)benzyl]-3-[3-tert-butyl-1-(3-methoxyphenyl)-1H-pyrazol-5-yl]urea]
– | 3.1 | COc1ccc(Cn2c(C)cc(OCc3ccc(F)cc3CNC(=O)Nc3cc(C(C)(C)C)nn3-c3ccc(Cl)c(O)c3)c(Cl)c2=O)cc1 [Example 202, 1-[3-tert-butyl-1-(4-chloro-3-hydroxyphenyl)-1H-pyrazol-5-yl]-3-[2-({[3-chloro-1-(4-methoxy-benzyl)-6-methyl-2-oxo-1,2-dihydropyridin-4-yl]oxy}methyl)-5-fluorobenzyl]urea]
– | 8.9 | Cc1cc(OCc2ccccc2CNC(=O)Nc2cc(C(C)(C)C)nn2-c2ccc(O)c(Cl)c2)c(Cl)c(=O)n1Cc1cccc(CNC(=O)CO)c1 [Example 261, N-[3-({4-[(2-{[({[3-tert-butyl-1-(3-chloro-4-hydroxyphenyl)-1H-pyrazol-5-yl]amino}carbonyl)amino]methyl}benzyl)oxy]-3-chloro-6-methyl-2-oxopyridin-1(2H)-yl}methyl)benzyl]-2-hydroxyacetamide]
2.62 | – | Cc1cc(OCc2ccccc2CNC(=O)Nc2cc(C(C)(C)C)nn2-c2cccc(F)c2)c(Br)c(=O)n1Cc1ccccc1 [Example 103, 1-(2-{[(1-benzyl-3-bromo-6-methyl-2-oxo-1,2-dihydropyridin-4-yl)oxy]methyl}benzyl)-3-[3-tert-butyl-1-(3-fluorophenyl)-1H-pyrazol-5-yl]urea]
